# Source: patent US20100056524A1, “Compound” (priority 2008, published 2010)
# Counter-ions that a name gives are not always drawn. Like-named read-outs stand apart in the source and are kept apart here.
# What was measured:
# [1] = molecular target: T1, ERK8 (Homo sapiens, UniProt Q8TD08); test: ERK8 protein kinase assay; format: biochemical; settings: for remaining activity at 10 µM: 10 μM compound; for residual kinase activity ERK8: 1 μm compound; for remaining activity at 1 µM: 1 μM compound
# T1 construct: All protein kinases were of human origin and encoded full length proteins, unless indicated otherwise; His6; made in house; host or cells: insect Sf21 cells
# T1 sequence (Q8TD08 1-544): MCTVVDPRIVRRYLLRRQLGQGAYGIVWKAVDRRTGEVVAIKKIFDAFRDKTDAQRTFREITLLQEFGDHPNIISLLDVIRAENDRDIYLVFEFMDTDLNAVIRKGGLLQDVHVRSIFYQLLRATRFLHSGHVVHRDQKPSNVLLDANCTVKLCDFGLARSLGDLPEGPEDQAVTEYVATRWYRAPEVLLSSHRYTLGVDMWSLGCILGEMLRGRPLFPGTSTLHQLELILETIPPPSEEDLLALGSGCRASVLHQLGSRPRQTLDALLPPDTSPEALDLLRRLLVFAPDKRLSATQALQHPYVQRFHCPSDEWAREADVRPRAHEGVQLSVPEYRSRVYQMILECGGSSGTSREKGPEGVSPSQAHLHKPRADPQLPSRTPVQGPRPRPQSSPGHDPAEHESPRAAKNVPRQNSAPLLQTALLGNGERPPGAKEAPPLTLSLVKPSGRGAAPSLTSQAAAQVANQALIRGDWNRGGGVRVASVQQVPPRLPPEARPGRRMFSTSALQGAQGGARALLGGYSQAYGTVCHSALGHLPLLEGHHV
# Text: (§1) All protein kinases were of human origin and encoded full length proteins, unless indicated otherwise. They were either expressed as glutathione S-transferase (GST) fusion proteins in Escherichia Coli or as hexahistidine (His6)-tagged proteins in insect Sf21 cells. GST fusion proteins were purified by affinity chromatography on glutathione-Sepharose, and His6-tagged proteins on nickel/nitriloacetate-agarose. The procedures for expressing some of the protein kinases used herein have been detailed previously.^8,9 The following sections outline the DNA vectors synthesised and the procedures used to express and purifying protein kinases that have not been reported previously.
# The following kinases were expressed in Sf21 cells: Aurora B and Aurora C, extra-cellular signal-regulated kinase 8 (ERK8), microtubule affinity regulating kinase 3 (MARK3), protein kinase Bα[118-480][S473D], protein kinase Bβ (PKBβ[120-481][S474D], 3-phosphoinositide-dependent protein kinase-1 [52-556]
# (§2) All assays (25.5 μl) were carried out at room temperature (21° C.) and were linear with respect to time and enzyme concentration under the conditions used. Assays were performed for 30 min using Multidrop Micro reagent dispensers (Thermo Electron Corporation, Waltham, Mass. 02454, USA) in a 96-well format. The concentration of magnesium acetate in the assays was 10 mM and the [γ-33P] ATP (800 cpm/pmol) was used at 5, 20 or 50 μM as indicated, in order to be at or below the Km for ATP for each enzyme. Protein kinases assayed at 5 μM ATP were: —ERK1, ERK8, PKBα, MARK3, Aurora C. Protein kinases assayed at 20 μM ATP were: —JNK1, PDK1, CHK1, CHK2, CDK2 and Aurora B. Protein kinases assayed at 50 μM ATP were: —MNK2, IKKepsilon and TBK1.
# (§3) The assays were initiated with MgATP, stopped by addition of 5 μl of 0.5 M orthophosphoric acid and spotted on to P81 filterplates using a unifilter harvester (PerkinElmer, Boston, Mass. 02118, USA). The IC50 values of inhibitors were determined after carrying out assays at 10 different concentrations of each compound.
# ERK1 and ERK8 were both assayed against myelin basic protein (MBP, 0.33 mg/ml). MARK3 was assayed against the peptide […] (300 μM), MNK2 against the eIF4E protein (0.5 mg/ml). PKBβ was assayed against the peptide […] (30 μM). TBK1 were assayed against ([…]) (300 μM). The substrates used for other protein kinases were described previously.^8,9
# (§4) Unless stated otherwise, enzymes were diluted in 50 mM Tris/HCl pH 7.5, 0.1 mM EGTA, 1 mg/ml BSA, 0.1% (v/v) 2-mercaptoethanol and assayed in 50 mM Tris/HCl pH 7.5, 0.1 mM EGTA, 0.1% (v/v) 2-mercaptoethanol.
# [2] = molecular target: T2, RSK2 (Homo sapiens, UniProt P51812); test: RSK2 protein kinase assay; format: biochemical; settings: for remaining activity at 10 µM: 10 μM compound; for residual kinase activity RSK2: 1 μm compound; for remaining activity at 1 µM: 1 μM compound
# T2 construct: All protein kinases were of human origin and encoded full length proteins, unless indicated otherwise; made in house
# Text: as §1, §2, §3, §4
# [3] = molecular target: T3, PAK6 (Homo sapiens, UniProt Q9NQU5); test: PAK6 protein kinase assay; format: biochemical; settings: for remaining activity at 10 µM: 10 μM compound; for residual kinase activity PAK6: 1 μm compound; for remaining activity at 1 µM: 1 μM compound
# T3 construct: All protein kinases were of human origin and encoded full length proteins, unless indicated otherwise; made in house
# Text: as §1, §2, §3, §4
# [4] = system: PHK; test: PHK protein kinase assay; format: biochemical, human; settings: for residual kinase activity: PHK
# Text: as §1, §2, §3, §4
# [5] = system: CK1; test: CK1 protein kinase assay; format: biochemical, human; settings: for residual kinase activity: CK1
# Text: as §1, §2, §3, §4
# [6] = molecular target: T4, PKC zeta (Homo sapiens, UniProt Q05513); test: PKC zeta protein kinase assay; format: biochemical; settings: for remaining activity at 10 µM: 10 μM compound; for residual kinase activity PKC zeta: 1 μm compound; for remaining activity at 1 µM: 1 μM compound
# T4 construct: All protein kinases were of human origin and encoded full length proteins, unless indicated otherwise; made in house
# T4 sequence (Q05513 1-592): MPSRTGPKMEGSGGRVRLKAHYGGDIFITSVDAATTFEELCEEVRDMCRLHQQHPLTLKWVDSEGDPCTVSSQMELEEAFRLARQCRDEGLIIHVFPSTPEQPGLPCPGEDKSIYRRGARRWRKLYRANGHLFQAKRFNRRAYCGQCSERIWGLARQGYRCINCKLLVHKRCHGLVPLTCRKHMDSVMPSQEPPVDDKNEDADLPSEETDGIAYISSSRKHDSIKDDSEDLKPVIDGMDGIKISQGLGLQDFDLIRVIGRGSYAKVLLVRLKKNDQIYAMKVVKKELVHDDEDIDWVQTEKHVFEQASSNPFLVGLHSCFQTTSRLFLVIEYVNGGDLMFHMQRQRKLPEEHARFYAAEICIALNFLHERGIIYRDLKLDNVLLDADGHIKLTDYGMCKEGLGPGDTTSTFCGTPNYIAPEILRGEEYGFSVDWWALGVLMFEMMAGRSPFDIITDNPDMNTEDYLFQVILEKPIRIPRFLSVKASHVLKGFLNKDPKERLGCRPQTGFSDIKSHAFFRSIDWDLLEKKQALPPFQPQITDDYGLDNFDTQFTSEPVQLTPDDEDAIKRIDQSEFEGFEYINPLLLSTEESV
# Text: as §1, §2, §3, §4
# [7] = molecular target: T5, NEK6 (Homo sapiens, UniProt Q9HC98); test: NEK6 protein kinase assay; format: biochemical; settings: for remaining activity at 10 µM: 10 μM compound; for residual kinase activity NEK6: 1 μm compound; for remaining activity at 1 µM: 1 μM compound
# T5 construct: All protein kinases were of human origin and encoded full length proteins, unless indicated otherwise; made in house
# Text: as §1, §2, §3, §4
# [8] = read-out: residual kinase activity ERK8
# [9] = read-out: residual kinase activity RSK2
# [10] = read-out: residual kinase activity PAK6
# [11] = read-out: residual kinase activity PKC zeta
# [12] = read-out: residual kinase activity NEK6
# [13] = ERK8, 5 μM ATP, read-out: residual kinase activity
# [14] = RSK2, read-out: residual kinase activity
# [15] = PAK6, read-out: residual kinase activity
# [16] = PKC zeta, read-out: residual kinase activity
# [17] = NEK6, read-out: residual kinase activity
# T5 sequence (Q9HC98 whole entry): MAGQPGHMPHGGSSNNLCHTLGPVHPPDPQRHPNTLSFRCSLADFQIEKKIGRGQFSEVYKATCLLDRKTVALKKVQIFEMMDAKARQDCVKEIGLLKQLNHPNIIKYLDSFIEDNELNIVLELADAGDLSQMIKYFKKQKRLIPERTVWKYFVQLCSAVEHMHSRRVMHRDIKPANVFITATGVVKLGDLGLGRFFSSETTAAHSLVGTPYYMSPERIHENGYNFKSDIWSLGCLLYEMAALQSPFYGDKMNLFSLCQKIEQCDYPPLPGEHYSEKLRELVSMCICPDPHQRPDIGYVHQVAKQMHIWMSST
# T3 sequence (Q9NQU5 whole entry): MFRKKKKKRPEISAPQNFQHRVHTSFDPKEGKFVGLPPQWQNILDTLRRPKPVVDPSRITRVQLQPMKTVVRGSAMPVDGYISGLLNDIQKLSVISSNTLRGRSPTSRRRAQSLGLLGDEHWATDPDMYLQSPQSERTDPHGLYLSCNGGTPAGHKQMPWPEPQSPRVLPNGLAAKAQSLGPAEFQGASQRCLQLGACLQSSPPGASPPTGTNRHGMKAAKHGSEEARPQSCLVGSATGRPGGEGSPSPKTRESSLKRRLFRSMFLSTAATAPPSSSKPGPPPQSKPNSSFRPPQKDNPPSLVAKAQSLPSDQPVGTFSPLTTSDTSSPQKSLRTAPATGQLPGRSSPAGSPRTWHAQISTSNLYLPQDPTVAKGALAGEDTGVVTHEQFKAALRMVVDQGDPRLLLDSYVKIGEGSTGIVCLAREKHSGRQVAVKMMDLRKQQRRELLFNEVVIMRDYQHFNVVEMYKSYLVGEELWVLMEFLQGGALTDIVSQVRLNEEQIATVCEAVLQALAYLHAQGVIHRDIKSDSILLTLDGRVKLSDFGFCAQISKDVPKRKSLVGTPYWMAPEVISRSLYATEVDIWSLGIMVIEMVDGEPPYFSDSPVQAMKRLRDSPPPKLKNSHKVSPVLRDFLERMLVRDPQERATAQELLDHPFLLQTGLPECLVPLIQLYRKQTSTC
# T2 sequence (P51812 whole entry): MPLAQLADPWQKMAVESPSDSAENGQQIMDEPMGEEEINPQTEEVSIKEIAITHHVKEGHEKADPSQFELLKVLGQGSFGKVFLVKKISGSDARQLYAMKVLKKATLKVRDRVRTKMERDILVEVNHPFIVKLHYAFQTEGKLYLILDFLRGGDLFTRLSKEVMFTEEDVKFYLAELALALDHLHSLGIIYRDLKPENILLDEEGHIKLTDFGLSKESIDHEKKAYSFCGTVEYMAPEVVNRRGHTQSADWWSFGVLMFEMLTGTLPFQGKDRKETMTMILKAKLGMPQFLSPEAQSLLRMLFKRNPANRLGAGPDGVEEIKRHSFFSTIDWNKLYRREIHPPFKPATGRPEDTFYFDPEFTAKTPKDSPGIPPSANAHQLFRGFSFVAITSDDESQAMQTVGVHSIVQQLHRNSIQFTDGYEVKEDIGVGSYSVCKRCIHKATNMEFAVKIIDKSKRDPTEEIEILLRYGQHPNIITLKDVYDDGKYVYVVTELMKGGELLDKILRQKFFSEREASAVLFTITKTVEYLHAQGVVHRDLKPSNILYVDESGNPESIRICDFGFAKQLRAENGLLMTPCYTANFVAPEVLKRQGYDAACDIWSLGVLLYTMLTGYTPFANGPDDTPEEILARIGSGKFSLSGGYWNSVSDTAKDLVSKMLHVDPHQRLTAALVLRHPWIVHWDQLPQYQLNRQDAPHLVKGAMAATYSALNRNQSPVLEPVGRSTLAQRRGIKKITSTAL
Structure (SMILES),"remaining activity at 10 µM [1, 8] [%]",residual kinase activity ERK8 [1] [%],"remaining activity at 10 µM [2, 9] [%]",residual kinase activity RSK2 [2] [%],"remaining activity at 10 µM [3, 10] [%]",residual kinase activity PAK6 [3] [%],"remaining activity at 1 µM [1, 13] [%]","remaining activity at 10 µM [1, 13] [%]","remaining activity at 1 µM [2, 14] [%]","remaining activity at 10 µM [2, 14] [%]","remaining activity at 1 µM [3, 15] [%]","remaining activity at 10 µM [3, 15] [%]",residual kinase activity ([4]; 1 μM compound) [%],residual kinase activity ([4]; 10 μM compound) [%],residual kinase activity ([5]; 1 μM compound) [%],residual kinase activity ([5]; 10 μM compound) [%],"remaining activity at 1 µM [6, 16] [%]","remaining activity at 10 µM [6, 16] [%]","remaining activity at 1 µM [7, 17] [%]","remaining activity at 10 µM [7, 17] [%]",other results
"O=C(NCCCNc1nc(Nc2cccc(F)c2)ncc1Br)C1CCC1 [Compound A, cyclobutanecarboxylic acid {3-[5-bromo-2-(3-fluoro-phenylamino)-pyrimidin-4-ylamino]-propyl}-amide, reference compound]",3,9,9,38,14,45,,,,,,,,,,,,,,,"residual kinase activity PHK ([4]; 10 μM compound): 0%; residual kinase activity PHK ([4]; 1 μm compound): 7%; residual kinase activity CK1 ([5]; 10 μM compound): 50%; residual kinase activity CK1 ([5]; 1 μm compound): 91%; remaining activity at 10 µM [6, 11]: 42%; residual kinase activity PKC zeta [6]: 90%; remaining activity at 10 µM [7, 12]: 93%; residual kinase activity NEK6 [7]: 88%"
"O=C(NCCCNc1nc(Nc2cccc(F)c2)ncc1C1CC1)C1CCC1 [Example 23, Cyclobutanecarboxylic acid {3-[5-cyclopropyl-2-(3-fluoro-phenylamino)-pyrimidin-4-ylamino]-propyl}-amide]",6,14,14,44,50,82,14,6,44,14,82,50,28,3,93,64,99,89,88,83,"residual kinase activity PHK ([4]; 10 μM compound): 3%; residual kinase activity PHK ([4]; 1 μm compound): 28%; residual kinase activity CK1 ([5]; 10 μM compound): 64%; residual kinase activity CK1 ([5]; 1 μm compound): 93%; remaining activity at 10 µM [6, 11]: 89%; residual kinase activity PKC zeta [6]: 99%; remaining activity at 10 µM [7, 12]: 83%; residual kinase activity NEK6 [7]: 88%"
"O=C(NCCCNc1nc(Nc2cccc(N3CCCC3=O)c2)ncc1C1CC1)c1cccs1 [Example 47, Thiophene-2-carboxylic acid (3-{5-cyclopropyl-2-[3-(2-oxo-pyrrolidin-1-yl)-phenylamino]-pyrimidin-4-ylamino}-propyl)-amide. Hydrochloride salt]",,,,,,,33,10,65,28,77,85,78,24,102,106,80,78,65,65,
"O=C(NCCCNc1nc(Nc2cccnc2)ncc1C1CC1)c1cccs1 [Example 50, Thiophene-2-carboxylic acid {3-[5-cyclopropyl-2-(pyridin-3-ylamino)-pyrimidin-4-ylamino]-propyl}-amide]",,,,,,,13,5,69,28,78,50,64,15,107,82,84,73,107,103,
